pKi: −log10 of the molar value. Counter-ions that a name gives are not always drawn.
Target: T1, σ1-receptor (Cavia porcellus, UniProt Q60492)
T1 construct: Guinea pig brains were homogenized in 10 vols; (w/v) of Tris-HCl 50 mM 0.32 M sucrose; from tissue; host or cells: guinea pig brain membranes
Experiment: σ1-receptor binding assay, [3H]-(+)-pentazocine, guinea pig brain membranes
Settings: radioligand [3H]-(+)-pentazocine at 5.0 nM; guinea pig brain membrane; 150 min at 37° C.; nonspecific binding with 1 μM haloperidol
Protocol: Brain membrane preparation and binding assays for the σ1-receptor were performed as described (DeHaven-Hudkins, D. L., L. C. Fleissner, and F. Y. Ford-Rice, 1992, Characterization of the binding of [^3H](+)pentazocine to σ recognition sites in guinea pig brain, Eur. J. Pharmacol. 227, 371-378) with some modifications. Guinea pig brains were homogenized in 10 vols. (w/v) of Tris-HCl 50 mM 0.32 M sucrose, pH 7.4, with a Kinematica Polytron PT 3000 at 15000 r.p.m. for 30 s. The homogenate was centrifuged at 1000 g for 10 min at 4° C. and the supernatants collected and centrifuged again at 48000 g for 15 min at 4° C. The pellet was resuspended in 10 volumes of Tris-HCl buffer (50 mM, pH 7.4), incubated at 37° C. for 30 min, and centrifuged at 48000 g for 20 min at 4° C. Following this, the pellet was re-suspended in fresh Tris-HCl buffer (50 mM, pH 7.4) and stored on ice until use.
The radioligand used was [^3H]-(+)-pentazocine at 5.0 nM and the final volume was 200 μl. The incubation was initiated with the addition of 100 μl of membrane at a final tissue concentration of approximately 5 mg tissue net weight/mL and the incubation time was 150 m. at 37° C. After incubation, the membranes were collected onto pretreated glass fiber filterplate (MultiScreen-FC, Millipore), with polyethylenimine 0.1%. The filters were washed two times with 200 μl of washing buffer (50 mM Tris Cl, pH=7.4) and then 25 μl of Ecoscint H liquid scintillation cocktail were added. Microplates were allowed to set for several hours and then quantified by liquid scintillation spectrophotometry (1450 Microbeta, Wallac). Nonspecific binding was determined with 1 μM haloperidol.

T1 sequence (Q60492 whole entry): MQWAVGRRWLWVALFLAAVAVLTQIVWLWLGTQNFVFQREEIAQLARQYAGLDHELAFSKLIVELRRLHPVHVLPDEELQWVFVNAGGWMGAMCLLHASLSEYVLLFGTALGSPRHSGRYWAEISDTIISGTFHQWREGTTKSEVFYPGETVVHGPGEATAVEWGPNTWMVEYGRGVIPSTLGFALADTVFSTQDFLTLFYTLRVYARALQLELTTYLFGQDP

| Compound | pKi |
| --- | --- |
| c1ccc(C2CCN(CCCCOc3cc4ccccn4n3)CC2)cc1 [Example 21, 2-(4-(4-phenylpiperidin-1-yl)butoxy)pyrazolo[1,5-a]pyridine oxalate] | 8.42 |
| c1c(OCCCCN2CCN(C3CCCCC3)CC2)nn2c1CCCC2 [Example 69, 2-(4-(4-cyclohexylpiperazin-1-yl)butoxy)-4,5,6,7-tetrahydropyrazolo[1,5-a]pyridine maleate] | 7.38 |
| c1ccn2nc(COCCN3CCCCCC3)cc2c1 [Example 2, 2-((2-(azepan-1-yl)ethoxy)methyl)pyrazolo[1,5-a]pyridine maleate] | 7.42 |
| CC(C)N1CCN(CCCCOc2cc3n(n2)CCCC3)CC1 [Example 92, 2-(4-(4-isopropylpiperazin-1-yl)butoxy)-4,5,6,7-tetrahydropyrazolo[1,5-a]pyridine maleate] | 6.74 |
| c1ccn2nc(OCCCCN3CCCCCC3)cc2c1 [Example 49, 2-(4-(azepan-1-yl)butoxy)pyrazolo[1,5-a]pyridine maleate] | 8.15 |
| CC(C)(C)C1CCN(CCOc2cc3n(n2)CCCC3)CC1 [Example 66, 2-(2-(4-tert-butylpiperidin-1-yl)ethoxy)-4,5,6,7-tetrahydropyrazolo[1,5-a]pyridine maleate] | 8.26 |
| c1c(OCCCCN2CCSCC2)nn2c1CCCC2 [Example 86, 4-(4-(4,5,6,7-tetrahydropyrazolo[1,5-a]pyridin-2-yloxy)butyl)thiomorpholine maleate] | 8.08 |
| c1ccc(N2CCN(CCCCOc3cc4ccccn4n3)CC2)cc1 [Example 25, 2-(4-(4-phenylpiperazin-1-yl)butoxy)pyrazolo[1,5-a]pyridine oxalate] | 7.71 |
| c1ccn2nc(OCCN3CCN(C4CCCCC4)CC3)cc2c1 [Example 47, 2-(2-(4-cyclohexylpiperazin-1-yl)ethoxy)pyrazolo[1,5-a]pyridine dimaleate] | 7.85 |
| CN1CCCN(CCCCOc2cc3n(n2)CCCC3)CC1 [Example 96, 2-(4-(4-methyl-1,4-diazepan-1-yl)butoxy)-4,5,6,7-tetrahydropyrazolo[1,5-a]pyridine maleate] | 6.75 |
| Clc1c(OCCCCN2CCN(C3CCCCC3)CC2)nn2c1CCCC2 [Example 108, 3-chloro-2-(4-(4-cyclohexylpiperazin-1-yl)butoxy)-4,5,6,7-tetrahydropyrazolo[1,5-a]pyridine] | 7.94 |
| c1ccn2nc(OCCCCN3CCCCC3)cc2c1 [Example 18, 2-(4-(piperidin-1-yl)butoxy)pyrazolo[1,5-a]pyridine oxalate] | 7.83 |
| c1ccn2nc(COCCCCN3CCCCCC3)cc2c1 [Example 8, 2-((4-(azepan-1-yl)butoxy)methyl)pyrazolo[1,5-a]pyridine maleate] | 7.65 |
| c1ccn2nc(OCCCCNC3CCCCC3)cc2c1 [Example 50, N-(4-(pyrazolo[1,5-a]pyridin-2-yloxy)butyl)cyclohexanamine maleate] | 8.01 |
| CN(CCCCOc1cc2n(n1)CCCC2)Cc1ccccc1 [Example 82, N-benzyl-N-methyl-4-(4,5,6,7-tetrahydropyrazolo[1,5-a]pyridin-2-yloxy)butan-1-amine maleate] | 8.09 |
| CN(CCOc1nn2ccccc2c1I)Cc1ccccc1 [Example 106, N-benzyl-2-(3-iodopyrazolo[1,5-a]pyridin-2-yloxy)-N-methylethanamine oxalate] | 8.24 |
| CN(CCCCOc1cc2ccccn2n1)Cc1ccncc1 [Example 32, N-methyl-4-(pyrazolo[1,5-a]pyridin-2-yloxy)-N-(pyridin-4-ylmethyl)butan-1-amine dihydrochloride] | 7.84 |

| Compound | pKi |
| --- | --- |
| CN(CCCCOc1cc2n(n1)CCCC2)C1CCN(Cc2ccccc2)CC1 [Example 67, 1-benzyl-N-methyl-N-(4-(4,5,6,7-tetrahydropyrazolo[1,5-a]pyridin-2-yloxy)butyl)piperidin-4-amine dimaleate] | 7.18 |
| CCN(CC)CCCCOc1cc2ccccn2n1 [Example 19, N,N-diethyl-4-(pyrazolo[1,5-a]pyridin-2-yloxy)butan-1-amine oxalate] | 7.13 |
| CC(C)(C)C1CCN(CCCCOc2cc3n(n2)CCCC3)CC1 [Example 65, 2-(4-(4-tert-butylpiperidin-1-yl)butoxy)-4,5,6,7-tetrahydropyrazolo[1,5-a]pyridine maleate] | 8.08 |
| c1ccc2c(c1)CCN(CCCCOc1cc3ccccn3n1)C2 [Example 36, 2-(4-(pyrazolo[1,5-a]pyridin-2-yloxy)butyl)-1,2,3,4-tetrahydroisoquinoline maleate] | 7.70 |
| CN(CCOc1cc2ccccn2n1)C1CCN(Cc2ccccc2)CC1 [Example 41, 1-benzyl-N-methyl-N-(2-(pyrazolo[1,5-a]pyridin-2-yloxy)ethyl)piperidin-4-amine dimaleate] | 7.83 |
| c1c(OCCCN2CCCCC2)nn2c1CCCC2 [Example 99, 2-(3-(piperidin-1-yl)propoxy)-4,5,6,7-tetrahydropyrazolo[1,5-a]pyridine maleate] | 7.01 |
| CN(CCOc1cc2n(n1)CCCC2)C1CCN(Cc2ccccc2)CC1 [Example 72, 1-benzyl-N-methyl-N-(2-(4,5,6,7-tetrahydropyrazolo[1,5-a]pyridin-2-yloxy)ethyl)piperidin-4-amine maleate] | 7.46 |
| c1ccc2c(c1)COC21CCN(CCOc2cc3ccccn3n2)CC1 [Example 48, 1′-(2-(pyrazolo[1,5-a]pyridin-2-yloxy)ethyl)-3H-spiro[isobenzofuran-1,4′-piperidine] dimaleate] | 7.80 |
| c1c(OCCCN2CCCOCC2)nn2c1CCCC2 [Example 101, 4-(3-(4,5,6,7-tetrahydropyrazolo[1,5-a]pyridin-2-yloxy)propyl)-1,4-oxazepane] | 7.32 |
| c1ccc2cc(C3CCN(CCCCOc4cc5ccccn5n4)CC3)ccc2c1 [Example 26, 2-(4-(4-(naphthalen-2-yl)piperidin-1-yl)butoxy)pyrazolo[1,5-a]pyridine] | 7.96 |
| c1ccn2nc(OCCCCNC34CC5CC(CC(C5)C3)C4)cc2c1 [Example 37, N-adamantyl-4-(pyrazolo[1,5-a]pyridin-2-yloxy)-butan-1-amine maleate] | 7.85 |
| CC(C)(C)C1CCN(CCCCOc2cc3ccccn3n2)CC1 [Example 30, 2-(4-(4-tert-butylpiperidin-1-yl)butoxy)pyrazolo[1,5-a]pyridine hydrochloride] | 8.21 |
| c1c(OCCNC23CC4CC(CC(C4)C2)C3)nn2c1CCCC2 [Example 75, N-adamantyl-2-(4,5,6,7-tetrahydropyrazolo[1,5-a]pyridin-2-yloxy)ethanamine maleate] | 7.50 |
| c1c(OCCN2CCN(C3CCCCC3)CC2)nn2c1CCCC2 [Example 71, 2-(2-(4-cyclohexylpiperazin-1-yl)ethoxy)-4,5,6,7-tetrahydropyrazolo[1,5-a]pyridine maleate] | 7.41 |
| c1ccc2c(c1)COC21CCN(CCCCOCc2cc3ccccn3n2)CC1 [Example 6, 1′-(4-(pyrazolo[l,5-a]pyridin-2-ylmethylpyrazolo[1,5-a]pyridin-2-ylmethoxy)butyl)-3H-spiro[isobenzofuran-1,4′-piperidine] maleate] | 7.63 |
| c1c(OCCN2CC[C@H]3CCCC[C@@H]3C2)nn2c1CCCC2 [Example 87, (4aR,8aS)-2-(2-(4,5,6,7-tetrahydropyrazolo[1,5-a]pyridin-2-yloxy)ethyl)decahydroisoquinoline maleate] | 8.48 |

— patent US9487513B2, “Substituted pyrazolo[1,5-A]pyridines, their preparation and use as medicaments” (LABORATORIOS DEL DR. ESTEVE S.A., priority 2012, dated 2016)
